Assay results reported in US8513232B2, “Substituted spirocyclic piperidine derivatives as histamine-3 (H3) receptor ligands” (Cephalon, Inc., priority 2008, dated 2013).
Where two headings read alike, the source gives them in different places.

Columns and labels:
[1] = molecular target: T1, rat histamine H3 receptor (Rattus norvegicus, UniProt Q9QYN8); assay: Rat H3 radioligand binding ([3H]-N-alpha-methylhistamine, SPA)
T1 construct: encoding the entire 445-amino-acid rat histamine H3 receptor; expressed in transfected cells; membrane preparation
T1 sequence (Q9QYN8 whole entry): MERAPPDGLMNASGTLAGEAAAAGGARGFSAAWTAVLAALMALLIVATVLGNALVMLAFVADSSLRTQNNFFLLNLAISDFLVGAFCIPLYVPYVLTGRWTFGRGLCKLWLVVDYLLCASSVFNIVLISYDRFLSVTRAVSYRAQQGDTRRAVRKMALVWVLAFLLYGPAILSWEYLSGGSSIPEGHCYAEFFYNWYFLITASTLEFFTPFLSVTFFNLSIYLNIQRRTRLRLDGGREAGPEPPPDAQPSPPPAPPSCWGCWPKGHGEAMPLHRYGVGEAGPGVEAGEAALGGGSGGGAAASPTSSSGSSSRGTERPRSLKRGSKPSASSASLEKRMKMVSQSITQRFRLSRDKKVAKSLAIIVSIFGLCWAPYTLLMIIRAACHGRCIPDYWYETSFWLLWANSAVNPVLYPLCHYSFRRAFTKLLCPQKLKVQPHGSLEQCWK
In short: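 SPA-bead binding assay using [3H]-N-alpha-methylhistamine (approximately 1 nM final) with test compounds from 0.01 nM to 30 μM. Rat H3 receptor membranes came from stably transfected CHO-A3 cells; incubation ran 4 h at room temperature, in the dark, in Tris pH 7.4 buffer with MgCl2 and BSA. Clobenpropit (10 μM) gave non-specific binding.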

human H3 receptor = molecular target: T2, human H3 receptor (Homo sapiens, UniProt Q9Y5N1); assay: Human H3 radioligand binding ([3H]-N-alpha-methylhistamine, SPA)
T2 construct: expressed in transfected cells
T2 sequence (Q9Y5N1 whole entry): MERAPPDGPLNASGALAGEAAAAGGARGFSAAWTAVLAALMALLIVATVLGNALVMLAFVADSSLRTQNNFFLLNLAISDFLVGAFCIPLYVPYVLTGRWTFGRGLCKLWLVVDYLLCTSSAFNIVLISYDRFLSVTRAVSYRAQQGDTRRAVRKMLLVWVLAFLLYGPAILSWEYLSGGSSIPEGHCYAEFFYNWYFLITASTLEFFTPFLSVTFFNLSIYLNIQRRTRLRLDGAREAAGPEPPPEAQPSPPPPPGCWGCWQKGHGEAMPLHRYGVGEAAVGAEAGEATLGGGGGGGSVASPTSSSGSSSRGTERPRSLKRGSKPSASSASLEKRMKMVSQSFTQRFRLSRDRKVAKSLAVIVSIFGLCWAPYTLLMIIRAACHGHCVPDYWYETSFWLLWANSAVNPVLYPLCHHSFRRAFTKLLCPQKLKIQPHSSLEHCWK
In short: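 Compounds (0.01 nM-30 μM) competed with approximately 1 nM [3H]-N-alpha-methylhistamine for human H3 receptor in membranes of stably transfected CHO cells, 10 μg protein per well, in Tris-HCl pH 7.4/MgCl2/BSA buffer for 4 h at room temperature. Bound radioligand measured by scintillation proximity; 10 μM clobenpropit gave non-specific binding.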

[2] = Rat H3 binding, Table B, Examples 136-362, read-out: rat H3 binding Ki
[3] = Human H3 binding, Table B, Examples 136-362, read-out: hum H3 binding Ki
[4] = rat H3 binding, Table D, read-out: Rat H3 Ki
[5] = human H3 binding, Table D, read-out: Human H3 Ki
[6] = Table A, rat H3 binding, read-out: Rat Ki
[7] = Table A, human H3 binding, read-out: Human Ki

melting point | Ki [1, 4] | Ki (human H3 receptor; [5]) | further results | Structure (SMILES)
209 to 210 °C | – | – | Ki [1, 2]: < 200 nM; Ki (human H3 receptor; [3]): < 200 nM | Cc1cnccc1C(=O)Nc1ccc2c(c1)COC1(CCN(C3CCC3)CC1)O2 [Example 353]
128 to 130 °C | – | – | Ki [1, 2]: < 200 nM; Ki (human H3 receptor; [3]): < 200 nM | O=C(C1CC1)N1CCC(COc2ccc3c(c2)CCC2(CCN(C4CCC4)CC2)O3)CC1 [Example 358]
205 to 208 °C | – | – | Ki ([1]; read-out: Rat H3 kI): < 200 nM; Ki (human H3 receptor; read-out: Human H3 Ki): < 200 nM | Cn1cc2c(n1)CCC(c1ccc3c(c1)CCC1(CCN(C4CCC4)CC1)O3)=C2 [Example 448]
213 to 215 °C | – | – | Ki [1, 2]: < 200 nM; Ki (human H3 receptor; [3]): < 200 nM | Cc1cccc(Oc2ccc3c(c2)CCC2(CCN(C4CCC4)CC2)O3)n1 [Example 268]
189 to 192 °C | < 200 nM | < 200 nM | – | CN(C)S(=O)(=O)c1ccc(-c2ccc3c(c2)COC2(CCN(C4CCC4)CC2)O3)s1 [Example 654]
205 to 207 °C | < 200 nM | < 200 nM | – | c1cc2c(cc1-c1cn[nH]c1)COC1(CCN(C3CCC3)CC1)O2 [Example 750]
107 to 109 °C | < 200 nM | < 200 nM | – | Cn1nccc1-c1ccc2c(c1)COC1(CCN(C3CCC3)CC1)O2 [Example 740]
208 to 210 °C | – | – | Ki [1, 2]: < 200 nM; Ki (human H3 receptor; [3]): < 200 nM | CNC(=O)c1ccc(-c2ccc3c(c2)COC2(CCN(C4CCC4)CC2)O3)cn1 [Example 160]
235 to 237 °C | – | – | Ki ([1]; read-out: Rat H3 kI): < 200 nM; Ki (human H3 receptor; read-out: Human H3 Ki): < 200 nM | O=C1CCC(=O)N1CCCOc1ccc2c(c1)CCC1(CCN(C3CCC3)CC1)O2 [Example 460]
130 to 132 °C | < 200 nM | < 200 nM | – | O=c1cc(-c2ccc3c(c2)COC2(CCN(C4CCC4)CC2)O3)c(Cl)c[nH]1 [Example 667]
185 to 187 °C | – | – | Ki [1, 6]: < 200 nM; Ki (human H3 receptor; [7]): < 200 nM | O=C(NCCO)c1ccc(-c2ccc3c(c2)COC2(CCN(C4CCC4)CC2)O3)cc1 [Example 50]
123 to 127 °C | – | – | Ki [1, 6]: < 200 nM; Ki (human H3 receptor; [7]): < 200 nM | Cc1noc(C)c1-c1ccc2c(c1)COC1(CCN(C3CCC3)CC1)O2 [Example 76]
236 to 238 °C | – | – | Ki ([1]; read-out: Rat H3 kI): > 1000 nM; Ki (human H3 receptor; read-out: Human H3 Ki): 200 to 1000 nM | C(=C\c1ccc2c(c1)CCC1(CCN(C3CCC3)CC1)O2)/c1ccc(OCc2ccccc2)nc1 [Example 537]
173 to 175 °C | 200 to 1000 nM | < 200 nM | – | COc1cc(-c2ccc3c(c2)COC2(CCN(C4CCC4)CC2)O3)ccc1C(=O)O [Example 624]
186 to 187 °C | – | – | Ki ([1]; Rat H3 binding, Table B, given as numeric bound instead of class symbol, read-out: rat H3 binding Ki): > 300 nM; Ki (human H3 receptor; [3]): < 200 nM | CN1CCN(c2ccc3c(c2)OC2(CCN(C4CCC4)CC2)O3)C1=O [Example 151]
145 to 146 °C | < 200 nM | < 200 nM | – | COCCNC(=O)c1cc(-c2ccc3c(c2)COC2(CCN(C4CCC4)CC2)O3)cs1 [Example 578]
210 to 212 °C | < 200 nM | < 200 nM | – | COc1ncccc1-c1ccc2c(c1)COC1(CCN(C3CCC3)CC1)O2 [Example 747]
80 to 82 °C | – | – | Ki [1, 2]: < 200 nM; Ki (human H3 receptor; [3]): < 200 nM | CNC(=O)c1ccc(-c2ccc3c(c2)CCC2(CCN(C4CCC4)CC2)O3)cc1C#N [Example 246]
190 to 192 °C | 200 to 1000 nM | 200 to 1000 nM | – | FC(F)(F)c1ncccc1-c1ccc2c(c1)COC1(CCN(C3CCC3)CC1)O2 [Example 753]
150 to 152 °C | < 200 nM | < 200 nM | – | COC[C@H](C)NC(=O)c1ccc(-c2ccc3c(c2)COC2(CCN(C4CCC4)CC2)O3)cc1Cl [Example 598]
186 to 187 °C | – | – | Ki ([1]; read-out: Rat H3 kI): < 200 nM; Ki (human H3 receptor; read-out: Human H3 Ki): < 200 nM | OC1(c2ccc3c(c2)COC2(CCN(C4CCC4)CC2)O3)CCC(F)(F)CC1 [Example 554]
142 to 145 °C | < 200 nM | < 200 nM | – | O=C(NC[C@@H]1CCCO1)c1c(F)cc(-c2ccc3c(c2)COC2(CCN(C4CCC4)CC2)O3)cc1F [Example 599]
